The record followed here is patent publication US20260263638A1, “COMPOSITIONS AND METHODS TO IMPROVE RNA PROPERTIES USING BASE, PHOSPHODIESTER LINKAGE, SUGAR BACKBONE, AND CAP MODIFICATIONS” (The Broad Institute, Inc., priority 2023, published 2026).

Series [1] can be described thus: In vivo imaging of NanoLuc after retro-orbital mRNA-LNP injection. The settings on record: mice; for NLuc translation of QRNA relative to uncapped m1ψ-circRNA precursor (circRNA-OU): LNP retro-orbital. On the procedure: All animal procedures followed animal care guidelines approved by the Institutional Animal Care and Use Committee (IACUC) of the Broad Institute of MIT and Harvard under animal protocol #0255-08-19. Animal experiments were conducted in compliance with IACUC policies and NIH guidelines. The BALB/cj (male, 6~8 weeks old) mice used for in vivo NanoLuc assay in this study were purchased from The Jackson Laboratory (JAX). The C57BL/6 mice (female, 7 weeks old), used for hEPO assay in this study were purchased from The Jackson Laboratory (JAX).
mRNA diluted in 50 mM citrate buffer (pH 4) and lipid mix (37.5 mM in ethanol) containing 50 mol % SM-102, 10 mol % DSPC, 38.5 mol % Cholesterol, and 1.5 mol % DMG-PEG2000 were assembled into LNP using a NanoAssemblr Spark instrument [Precision Nanosystems]. Upon formulation, mRNA-LNPs were diluted in 12 mL 1×PBS solution and the buffer was exchanged by concentrating with a 30 kDa spin filter [MilliporeSigma, UFC901008] to remove residue ethanol. Concentrations and encapsulation efficiency of mRNA were determined using Quant-it RiboGreen RNA Assay Kit [ThermoFisher, R11490]. 1 μg NanoLuc or hEPO mRNA-LNP in a total volume of 100 μL was injected through retro orbital injection into each mouse. Four mice were used for each condition of each experiment (NanoLuc imaging, hEPO ELISA, and reticulocyte counting). For NanoLuc imaging, PBS injection was used as negative control. For hEPO/reticulocyte experiments, poly(C)-LNP complex was used as negative control.
In vivo activity of NanoLuc was measured using a Competent IVIS-Perkin Elmer IVIS Spectrum CT System [Perkin Elmer]. At each time point, mice were anesthetized with isoflurane. The fluorofurimazine substrate with poloxamer-407 [Promega, CS320501] was freshly reconstituted in PBS to a final concentration of ~5.1 mM and injected intraperitoneally (i.p.) into the mice at a dose of ~22 nmol per gram body weight. Mice were imaged 5 mins post injection using auto exposure settings. The luminescent activity was quantified using Aura 4.0 imaging software. The background was determined by including mice injected with poly C-LNP negative control and subtracted from each measurement.

For series [2], the system named is HeLa cells. Put plainly: NLuc bioluminometry of circRNA/QRNA (Fluc transfection control). The format is cell-based. The method, then:
(§1) Synthetic linear mRNA encoding NanoLuciferase (NLuc) was prepared from DNA template by IVT with 100% m1ψ substitution. The triphosphorylated mRNA after IVT was then treated with Calf Intestinal Alkaline Phosphatase (CIAP) to yield 5′/3′-hydroxyl mRNA. A chemically synthesized oligonucleotide with a branched m7G cap and 5′/3′-phosphates was then ligated to the 5′/3′-hydroxyl mRNA by T4 RNA ligase, which ligates the 5′-phosphate on the oligo and 3′-hydroxyl of the mRNA. The ligation product was then further treated with RtcB ligase, which ligates the 5′-hydroxyl and 3′-phosphate ends to enable intramolecular circularization. […] Using one primer only produced no fragmentation but only linearization, confirming successful circularization. Using double primers produced fragments flanking the branched region, where branched topology was confirmed by gel shift. […] NLuc bioluminometry was measured 8 hrs post transfection and normalized Firefly luciferase as transfection control. Mean±s.e.m., n=3. P values were calculated by ordinary one-way ANOVA (alpha=0.05), with multiple comparisons to circ-NLuc with only 5-octadiynyl deoxyuridine (OU) handle (construct 45). ****P<0.0001, n.s. P>0.05. […] QRNA with m7G (construct 48) was compared. n=3, biological replicates. Mean±sem. P values were calculated by ordinary one-way ANOVA with multiple comparisons against construct 61 without any cotransfected capped oligos (Dunnett's multiple comparison test). […] P values were calculated by unpaired two-sided t-test.
HeLa cells [ATCC, CCL-2] were maintained in DMEM culture media [ThermoFisher Scientific, 119951] containing 10% FBS and 1% penicillin-streptomycin [ThermoFisher Scientific, 15070063] in a 37° C. incubator with 5% CO2 and passaged at a ratio of 1:10 every 3 days. […] Cells were lysed and luciferase activity was measured using the Promega Dual Glo Luciferase Assay System [Promega, E2920]. Firefly luminescence/Renilla luminescence for each well was used as mRNA activity readout. […]

In series [3] the test system is rabbit reticulocyte lysate (RRL) in vitro translation system. Kind of series: In vitro translation assay in rabbit reticulocyte lysate with or without 4EGI-1. The format is biochemical. The method, then: Firefly luciferase reporter mRNA with one cap and Nanoluc mRNA with two caps were synthesized according to protocol mentioned above. The in vitro translation was conducted using Rabbit Reticulocyte Lysate (Nuclease-treated) [Promega, L4960] according to manufacturer's protocol with some modifications. 30% or 40% of rabbit reticulocyte lysate, 4% of SUPERaseIn RNase Inhibitor, amino acid mixture and indicated mRNA were added to the reaction with 4EGI-1 inhibitor (600 μM) or DMSO as control in 50 μL reaction. The reactions were incubated at 30° C. for an hour. Then, […] of the reaction mixture was diluted by 10-fold with PBS. The fluorescence of firefly luciferase was measured with Dual-Glo Luciferase Assay System [Promega, E2920] and the fluorescence of Nanoluc was measured with Nano-Glo Luciferase Assay System [Promega, N1110] according to manufacturer's protocol.

The subject of series [4] is HeLa cells. Kind of series: Two-ORF FLuc/3xHiBiT reporter bioluminometry. The format is cell-based. The note with it: 8 hrs post transfection. The method, then:
as §1
Finally, Applicant evaluated if the branched cap on the QRNA has the ability to initiate translation of open reading frames (ORFs) upstream of it. […] FLuc and HiBiT bioluminometry were evaluated 8 hrs post transfection.
Lastly, to test whether the branched cap could drive the translation for upstream AUG via either proximity looping or bidirectional ribosome scanning to opt for upstream open reading frames (ORFs), Applicant generated a two-ORF reporter mRNA that contained a 5′ full-length FLuc ORF and a 3′ 3×HiBIT ORF with an out-of-frame start codon from the FLuc ORF (construct 62). […]
For orientation: The HiBiT peptide binds its large partner to form an active luciferase.

The target in series [5] is eIF4E (UniProt P06730 P06730:1-217). Kind of series: EMSA; 50 mM KCl, 10 mM Tris-HCl pH 7.6, 1 mM DTT, 4 C. The note with it: tags: His tag, Cayman Chemical 25150. The method, then: Capped oligonucleotides were labeled on the 3′ end using AF647 labeled cytidine-5′-phosphate-3′-(6-aminohexyl) phosphate [Jena Bioscience, NU-1706-AF647] and T4 RNA ligase ligated AF647-labeled cytidine onto the capped oligos using manufacturer's protocols. Oligos were then incubated in the binding buffer (1 mM DTT, 50 mM KCl, 10 mM Tris-HCl (pH 7.6), Novex Hi-Density TBE Sample Buffer [Invitrogen, LC6678]) with varying eIF4E-His [Cayman Chemical Inc, 25150] concentrations prepared by sequential dilutions from the stock solution. The oligos and […] were incubated at 4° C. for 30 mins and characterized by EMSA with Novex TBE Gels, 4-20% [Invitrogen, EC6225BOX] at 4° C. AF647 labeled oligos were imaged with BioRad ChemiDoc MP Imaging System [12003154] and band intensities were quantified using ImageJ. For Kd calculation, the proportions of bound were plotted against eIF4E concentration using GraphPad Prism (Specific binding with Hill slope).
To gain insights into the mechanism of how the topologically branched internal cap initiates mRNA translation, Applicant used fluorophore-labeled mono- or dual-capped oligonucleotides and measured their affinity to eIF4E through EMSA.

Entries after “also recorded” stand apart in the source; their conditions may differ. Strand notation (5' to 3'): a small letter for the sugar, then the base; units joined by * are phosphorothioate-linked, units joined directly phosphodiester-linked; [ ] holds rarer units or linkages, { } end groups; capitals alone tell only the bases. [5OctU] = 5-octadiynyl-2'-deoxyuridine, alkyne click handle; d = 2'-deoxy (DNA); {3P} = phosphate; r = 2'-OH (RNA); {P} = phosphate

A word on the Kd: it is the concentration at which binding is half-saturated.

Chain of eIF4E (P06730 whole entry, one chain of several): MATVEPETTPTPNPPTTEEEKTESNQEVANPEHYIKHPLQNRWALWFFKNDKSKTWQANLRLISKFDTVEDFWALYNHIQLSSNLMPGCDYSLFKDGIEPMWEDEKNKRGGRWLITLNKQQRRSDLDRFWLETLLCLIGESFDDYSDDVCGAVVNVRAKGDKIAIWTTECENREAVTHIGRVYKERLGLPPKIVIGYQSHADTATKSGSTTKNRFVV

On to “construct 49: m1ψ NLuc QRNA with LNAm7G branched cap (SEQ ID NO: 115) ({P}-rArArArArArArAd[5OctU]rArArArArArA-{3P}; ligated into m1Ψ circRNA, LNA-m7G-capped LNA/2'-OMe branch oligo clicked at octadiynyl-dU)”, for which the “NLuc translation of QRNA relative to uncapped m1ψ-circRNA precursor (circRNA-OU)” value came out at 17 × in series [1] (8 hrs), 30 × in series [1] (24 hrs) and 59 × in series [1] (48 hrs). In series [1] (LNP, retro-orbital injection), the “Time of peak NLuc bioluminescence / translation in vivo” value came to 24 h. Further, in series [2] (HeLa cells, 8 hrs post transfection, compared to circ-NLuc with only OU handle (construct 45)), the “NLuc protein production increase of modified circRNA/QRNA” value is listed as “up to 144 fold”.
In the case of `O=C(O)C(Cc1ccccc1[N+](=O)[O-])=NNc1nc(-c2ccc(Cl)c(Cl)c2)cs1` (mixture of isomers) [4EGI-1], in series [3] (600 μM 4EGI-1 coupled with reduction of RRL % to 30%), the “Translation of mono- and dual-capped mRNA in RRL” value was “almost completely halted translation”. For the same molecule, the “Translation of mono- and dual-capped mRNA in RRL in presence of 4EGI-1” value in series [3] (4EGI-1 600 μM or DMSO) is reported as “inhibited translation of dual-capped mRNA; also recorded: significantly reduced”.
As to “construct 64: two-ORF FLuc-3×HiBiT QRNA with LNAm7G branched cap (SEQ ID NO: 119) ({P}-rArArArArArArAd[5OctU]rArArArArArA-{3P}; ligated into circRNA, LNA-m7G-capped LNA/2'-OMe branch oligo clicked at octadiynyl-dU, further chemistry not fully specified)”, in series [4], the “FLuc ORF expression, QRNA vs circRNA (uncapped control)” value is 166 fold; the “HiBiT ORF expression, QRNA vs circRNA (uncapped control)” value came out at 18.7 fold; the “Translation of upstream HiBiT and downstream FLuc ORFs, result in words” value was “both the HiBiT and FLuc ORFs were enhanced”.

B1: 2xLNAm7G dual-capped branched (42) (ssRNA)
RNA 1: AGAUAAAUAAAAAA
RNA 2: AGAGAUAA
modifications: LNA-m7G cap on both 5' ends; second strand 3'-azide clicked to 5-octadiynyl-dU at position 8 of first strand
In series [5] (label: AF647-cytidine, branched), B1 yielded a Kd of 1280 nM.
Regarding AGAUAAAUAAAAAA (ssRNA, 5' m7G cap; 5-octadiynyl-dU at position 8) [1xm7G-OU (28)], the Kd in series [5] (label: 3' AF647-cytidine) is 2210 nM.

B2: construct S19: Bn7G-capped Nluc QRNA with globin UTRs, TGT/preQ1-azide labeled, uridine-containing (SEQ ID NO: 133) (nucleic acid)
chain: UAGUCUCGAGCUGGUACUGCAUGCACGCAAUGCUAGCUGCCCCUUUCCCGUCCUGGGUACCCCGAGUCUCCCCCGACCUCGGGUCCCAGGUAUGCUCCCACCUCCACCUGCCCCACUCACCACCUCUGCUAGUUCCAGACACCUCCCAAGCACGCAGCAAUGCAGCUCAAAACGCUUAGCCUAGCCACACCCCCACGGGAAACAGCAGUGAUUAACCUUUAGCAAUAAACGAAAGUUUAACUAAGCUAUACUAACCCCAGGGUUGGUCAAUUUCGUGCCAGCCACACCCUGGAGCUAGCAAAAAAAAAAAAAAAAAAAAAAAAAAAAAAAAAAAAAAACUCAGUAGAUGUUUUCUUGGGUUAAUUGAGGCCUGAGUAUAAGGUGACUUAUACUUGUAAUCUAUCUAAACGGGGAACCUCUCUAGUAGACAAUCCCGUGCUAAAUUGUAGGACUGCCCUUUAAUAAAUACUUCUAUAUUUAAAGAGGUAUUUAUGAAAAGCGGAAUUUAUCAGAUUAAAAAUACUUUCUCUAGAGUCGACCUGCAG
modifications: Bn7G cap; TGT/preQ1-azide label
Consider B2, for which, in series [2] (circRNA with and without IRES, uridine-containing), the “Nluc translation of QRNA vs circRNA, result in words” value is given as “translated much more efficiently than its circRNA counterpart”.
